Assay results published in patent US10212934B2, “Pesticidal compositions” (BASF AGRO B.V., priority 2014, dated 2019).
Where two headings read alike, the source gives them in different places.

Experiments:
Assay type in all cases: cell-based
Details in all cases: 7 days after inoculation
[1] = system: Botrytis cinerea; experiment: M2 microtiterplate test, grey mold Botrytis cinerea (Botrci)
[2] = system: Phytophthora infestans
[3] = system: Pyricularia oryzae
[4] = system: Septoria tritici; experiment: M4 microtiter test, leaf blotch on wheat caused by Septoria tritici (Septtr)
[5] = system: Alternaria solani; experiment: M5 microtiter test, early blight caused by Alternaria solani (Alteso)
[6] = system: Leptosphaeria nodorum; experiment: M6 microtiter test, wheat leaf spots caused by Leptosphaeria nodorum (Leptno)

For `Cc1cc(C(F)(F)F)nn1CC(=O)N1CCC(c2nc(C3=NOC(c4c(F)cccc4F)C3)cs2)CC1` (racemic) [Oxathiapiprolin (II-1), 1-(4-{4-[(5 RS)-5-(2,6-difluorophenyl)-4,5-dihydro-1,2-oxazol-3-yl]-1,3-thiazol-2-yl}-1-piperidyl)-2-[5-methyl-3-(trifluoromethyl)-1H-pyrazol-1-yl]ethanone], the Observed efficacy ([1]; 16 ppm) was 4% and the Observed efficacy ([1]; 63 ppm) was 23%.

`CC(O)(Cn1cncn1)c1ccc(Oc2ccc(Cl)cc2)cc1C(F)(F)F` (centres unmarked) [I-3, 2-[4-(4-chlorophenoxy)-2-(trifluoromethyl)phenyl]-1-(1,2,4-triazol-1-yl)propan-2-ol] was tested, and the Observed efficacy ([2]; 0.063 ppm) was 12%, the Observed efficacy ([1]; 0.063 ppm) was 42% and the Observed efficacy ([3]; 0.25 ppm) was 10%. The Observed efficacy ([4]; 0.00025 ppm) was 28%, the Observed efficacy ([5]; 0.001 ppm) was 9% and the Observed efficacy ([6]; 0.016 ppm) was 35%.

For `CNC(=O)Oc1cc(C)c(SC)c(C)c1` [Methiocarb (II-4), 4-methylthio-3,5-xylyl methylcarbamate], the Observed efficacy ([2]; 63 ppm) was 51%, the Observed efficacy ([3]; 63 ppm) was 36% and the Observed efficacy ([4]; 0.063 ppm) was 6%.

With `CC(c1ccc(C(F)(F)F)nc1)S(C)(=O)=NC#N` (centres unmarked) [Sulfoxaflor (II-3), [methyl(oxo){1-[6-(trifluoromethyl)-3-pyridyl]ethyl}-Λ^6-sulfanylidene]cyanamide] the Observed efficacy ([6]; 16 ppm (commercial finished formulation diluted with water)) was 0%.

`CC(C)(C)C(O)C(Oc1ccc(Cl)cc1)n1cncn1` (centres unmarked) [Triadimenol (II-2), (1 RS,2 RS;1 RS,2 SR)-1-(4-chlorophenoxy)-3,3-dimethyl-1-(1H-1,2,4-triazol-1-yl)butan-2-ol] gave an Observed efficacy ([1]; 4 ppm) of 39%.

In the case of `O=c1[c-](-c2cccc(C(F)(F)F)c2)c(=O)[n+](Cc2cncnc2)c2ccccn12` [Triflumezopyrim (II-7), 3,4-dihydro-2,4-dioxo-1-(pyrimidin-5-ylmethyl)-3-(α,α,α-trifluoro-m-tolyl)-2H-pyrido[1,2-a]pyrimidin-1-ium-3-ide], the Observed efficacy ([5]; 0.25 ppm) is reported as 36%.
